Results on 1 compound are retold here after patent US20220096486A1, “COMPOUNDS FOR USE IN THE TREATMENT OF ADCY5-RELATED DYSKINESIA” (ASSISTANCE PUBLIQUE - HOPITAUX DE PARIS, priority 2019, published 2022).

Experiment [1] concerns patients with ADCY5-related dyskinesia. In words: Seven patients treated with caffeine; dyskinesia episodes and self-rated improvement. The following applies: 150 to 800 mg of caffeine per day, all cases. Type of experiment: in vivo, human. Here is the method: Currently, seven patients are treated with caffeine with similar results with uptakes varying from 150 to 800 mg of caffeine per day. […] Four of them were asked to rate the improvement brought by caffeine on their involuntary movements, on a scale of 0 (no improvement) to 100% (major improvement with total disappearance of symptoms). All four reported an improvement of 80 to 100%.

Experiment [2] concerns patient with ADCY5-related dyskinesia.
Description: The patient is a child with the disorder. Pregnancy, birth and first acquisitions were unremarkable. They developed diurnal and nocturnal episodes of hyperkinetic involuntary movements involving the face and upper limbs, lasting from a few seconds to ten minutes. There was a clear kinesigenic trigger for some of the episodes, others were exercise-induced, and a few were spontaneous. In addition, they were described as clumsy, and had difficulties in various activities of daily living such as fine motor tasks or riding a bike. Frequency of the episodes was around 30 per day, causing significant disruption of activities. […] Interictal neurological examination was normal except for some fleeting choreodystonic movements. Because of the co-occurrence of several types of paroxysmal dyskinesia, the patient was first tested for mutations in the SLC2A1 and ADCY5 genes. Genetic analysis was negative for SLC2A1 but found a mosaic heterozygous mutation in the ADCY5 gene (c.2088+1G>A), previously reported as pathogenic (Carapito et al., A de novo ADCY5 mutation causes early-onset autosomal dominant chorea and dystonia. Mov Disord. 2015; 30(3):423-7).
Caffeine was the first treatment tried.
The next experiment deals with A2AR knockout mice. The conditions noted are these: cited from earlier work.

“Also recorded” adds a separate entry of the source.

With `Cn1c(=O)c2c(ncn2C)n(C)c1=O` [caffeine, 1,3,7-trimethylxanthine], in experiment [1], the “effect on dyskinesia episodes” value is recorded as “reduction or a suppression of dyskinesia episodes”. For the same compound, the “effect of resuming caffeine intake after four days of decaffeinated coffee” value in experiment [2] (after unknowing switch to decaffeinated coffee with reversal to baseline) is listed as “immediately restored the improvement”. Also, in experiment [2] (espresso in the morning, second espresso in the afternoon, half an espresso at bedtime, baseline around 30 episodes per day), the “effect on diurnal and nocturnal episodes of dyskinesia” value is reported as “next to complete resolution; also recorded: near-complete resolution”. For the same compound, the “remaining short and non-disruptive episodes during the day” value in experiment [2] (espresso morning, afternoon and half at bedtime, baseline around 30 episodes per day) is listed as “at most one or two”. For the same compound, the “start of dramatic response after intake” value in experiment [2] (one espresso in the morning, approximately 100 mg of caffeine, child, c.2088+1G>A ADCY5 mutation) turned out to be 45 min. For the same compound, the wake-promoting effect result in the experiment with A2AR knockout mice was “abolished”.
